Measured values from patent US12398154B2, “Azaquinazoline pan-KRas inhibitors” (Mirati Therapeutics, Inc., priority 2020, dated 2025).

What was measured:
[1] = target: KRas G12D (Homo sapiens, UniProt P01116, G12D); test: biochemical;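 note: TR-FRET displacement binding assay on KRas, read after a one-hour incubation at room temperature, IC50 fitted from percent-of-control values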
Protocol: (§1) The ability of a compound to bind to KRas was measured using a TR-FRET displacement assay. […] After a 60-minute incubation at room temperature, the reaction was measured using a BMG LABTECH CLARIO star Plus via TR-FRET. […] The POC values were fit to a 4-parameter IC50 equation and the IC50 value reported.

[2] = target: KRas G12V (Homo sapiens, UniProt P01116, G12V); test: biochemical;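 note: KRas binding measured by TR-FRET displacement at room temperature, IC50 fitted from percent of control values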
Protocol: as §1

[3] = system: pERK in H727 cells; test: Inhibition of KRas phosphorylation of ERK (Cisbio HTRF pERK assay); conditions: Homo sapiens, NCI-H727, read-out: Inhibition (HTRF IC50) of KRas-mediated Phosphorylation of ERK, H727
Protocol: To harvest cells from flask using 0.05% Trypsin/EDTA solution. Add 10 mL of media to stop trypsinizing. Pipette the cells into a conical bottom 50 mL centrifuge tube and centrifuge 5 min×1000 rpm. • 2. Re-suspend the cell pellet in media, take a cell count, and then adjust the cell density using fresh media. • 3. Seed 6,000 cells into cell culture plate with 50 μL media. […] Incubate cell plate overnight in a 37° C., 5% CO2 incubator. • Compound titrations • 1. Use Tecan to complete the compound addition. Compounds start from 10 uM top, 3-fold dilution, and 10 doses. The final DMSO concentration is 0.8%. Dispensed 0.2 uM Trametinib as Min control. • 2. Incubate cell plate for 3 hrs in the incubator. • Detection with cisbio pERK HTRF kit • 1. […] At the end of the compound treatment, flick-off the media. • 3. Add 35 μL of lysis buffer per well using a Multidrop Combi. Then place on a plate agitator shaking at 300 rpm at 4° C. for 40 mins. • 4. Make up the HTRF antibody buffer. For each assay plate, mix 50 μL of d2-conjugate antibody with 950 μL of detection buffer. Similarly, mix 50 μL of Cryptate antibody with 950 μL of detection buffer. Then mix the two diluted antibodies together. • 5. Dispense 3.4 μL the antibody buffer to wells of an empty assay plate. Seal the plate and centrifuge plate 30 sec×1000 rpm. • 6. At the end of the 4° C. lysis, centrifuge the lysate plates 3 mins×1500 rpm. • 7. Use the Bravo to transfer 13.6 μL of lysate from cell culture plate to assay plate.
Then incubate assay plate for 2 hrs at room temperature. […] At the end of incubation, read plate on the Envision after centrifuging plate 30 sec× • 1000 rpm.

[4] = system: pERK in ASPC1 cells; test: as above; conditions: Homo sapiens, ASPC1, read-out: Inhibition (HTRF IC50) of KRas-mediated Phosphorylation of ERK, AsPC-1
[5] = target: KRas G12R (Homo sapiens, UniProt P01116, G12R); test: biochemical;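 note: TR-FRET displacement assay of compound binding to KRas, read after one hour at room temperature, potency from a four-parameter fit of percent-of-control values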
Protocol: as §1

[6] = target: KRas G12C (Homo sapiens, UniProt P01116, G12C); test: biochemical;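 note: binding to KRas assessed by TR-FRET displacement after one hour incubation at room temperature, potency fitted from percent-of-control values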
Protocol: as §1

[7] = system: pERK in PSN1 cells; test: Inhibition of KRas phosphorylation of ERK (Cisbio HTRF pERK assay); conditions: Homo sapiens, PSN1, 3 h, read-out: Inhibition (HTRF IC50) of KRas-mediated Phosphorylation of ERK, PSN1
[8] = system: pERK in MKN1 cells; test: as above; conditions: Homo sapiens, MKN-1, 3 h, read-out: Inhibition (HTRF IC50) of KRas-mediated Phosphorylation of ERK, MKN1

KRas G12R, sequence (P01116 1-169 isoform P01116-2 G12R): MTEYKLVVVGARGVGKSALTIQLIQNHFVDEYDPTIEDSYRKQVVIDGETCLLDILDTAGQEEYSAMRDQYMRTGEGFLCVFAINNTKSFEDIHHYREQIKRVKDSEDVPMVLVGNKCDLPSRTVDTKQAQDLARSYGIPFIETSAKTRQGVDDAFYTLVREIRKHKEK
KRas G12D, sequence (P01116 1-169 isoform P01116-2 G12D): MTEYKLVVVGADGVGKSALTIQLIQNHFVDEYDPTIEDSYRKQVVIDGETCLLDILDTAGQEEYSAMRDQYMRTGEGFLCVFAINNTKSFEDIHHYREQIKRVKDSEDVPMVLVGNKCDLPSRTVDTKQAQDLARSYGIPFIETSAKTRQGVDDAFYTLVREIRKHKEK
KRas G12V, sequence (P01116 1-169 isoform P01116-2 G12V): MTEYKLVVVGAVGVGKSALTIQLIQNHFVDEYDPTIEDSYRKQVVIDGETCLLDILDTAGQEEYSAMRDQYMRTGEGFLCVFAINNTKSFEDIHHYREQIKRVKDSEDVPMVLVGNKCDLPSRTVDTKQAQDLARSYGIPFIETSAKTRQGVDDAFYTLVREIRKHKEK
KRas G12C, sequence (P01116 1-169 isoform P01116-2 G12C): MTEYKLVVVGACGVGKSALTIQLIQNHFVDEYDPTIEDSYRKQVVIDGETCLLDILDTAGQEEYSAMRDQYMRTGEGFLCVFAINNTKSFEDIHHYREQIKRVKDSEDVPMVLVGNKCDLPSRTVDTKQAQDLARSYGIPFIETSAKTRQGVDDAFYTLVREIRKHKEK

Cc1cc2[nH]ncc2c(-c2ncc3c(N4CCCC(C)(O)C4)nc(OCC45CCCN4CCC5)nc3c2F)c1C (stereo not shown) [Example 25, 1-(7-(5,6-dimethyl-1H-indazol-4-yl)-8-fluoro-2-((hexahydro-1H-pyrrolizin-7a-yl)methoxy)pyrido[4,3-d]pyrimidin-4-yl)-3-methylpiperidin-3-ol]
IC50 [1]: 433 nM | IC50 [2]: 633 nM | IC50 [3]: ≥ 10000 nM | IC50 [4]: ≥ 10000 nM | IC50 [5]: 1310 nM | IC50 [6]: 679 nM

CCc1c(F)ccc2cc(O)cc(-c3ncc4c(N5CCCC6(CC(F)C6)C5)nc(OC[C@@]56CCCN5C[C@H](F)C6)nc4c3F)c12 (stereo partly drawn) [Example 344, 5-ethyl-6-fluoro-4-(8-fluoro-4-(2-fluoro-6-azaspiro[3.5]nonan-6-yl)-2-(((2R,7aS)-2-fluorohexahydro-1H-pyrrolizin-7a-yl)methoxy)pyrido[4,3-d]pyrimidin-7-yl)naphthalen-2-ol]
IC50 [7]: ≥ 10000 nM | IC50 [1]: 138 nM | IC50 [2]: 83 nM | IC50 [3]: 4820 nM | IC50 [4]: 3410 nM | IC50 [8]: 796 nM | IC50 [5]: 94 nM

CCc1c(F)ccc2cc(O)cc(-c3ncc4c(N5CCCC(NS(N)(=O)=O)C5)nc(OC[C@@]56CCCN5C[C@H](F)C6)nc4c3F)c12 (stereo partly drawn) [Example 352, 7-(8-ethyl-7-fluoro-3-hydroxy-1-naphthyl)-8-fluoro-2-(((2R,7aS)-2-fluorohexahydro-1H-pyrrolizin-7a-yl)methoxy)-4-[3-(sulfamoylamino)-1-piperidyl]pyrido[4,3-d]pyrimidine]
IC50 [7]: ≥ 10000 nM | IC50 [1]: ≤ 2 nM | IC50 [2]: ≤ 2 nM | IC50 [3]: 1270 nM | IC50 [4]: 948 nM | IC50 [8]: 46 nM | IC50 [5]: ≤ 2 nM

CCc1c(F)ccc2cc(O)cc(-c3ncc4c(N5C[C@@H]6C(=O)NNC(=O)[C@@H]6C5)nc(OC[C@@]56CCCN5C[C@H](F)C6)nc4c3F)c12 [Example 363, (4aR,7aS)-6-(7-(8-ethyl-7-fluoro-3-hydroxynaphthalen-1-yl)-8-fluoro-2-(((2R,7aS)-2-fluorotetrahydro-1H-pyrrolizin-7a(5H)-yl)methoxy)pyrido[4,3-d]pyrimidin-4-yl)hexahydro-1H-pyrrolo[3,4-d]pyridazine-1,4(4aH)-dione]
IC50 [7]: ≥ 10000 nM | IC50 [1]: 201 nM | IC50 [2]: 57 nM | IC50 [3]: ≥ 10000 nM | IC50 [4]: ≥ 10000 nM | IC50 [8]: ≥ 10000 nM | IC50 [5]: 10 nM

CCc1c(F)ccc2cc(O)cc(-c3ncc4c(NCC5CCNC5=O)nc(OC[C@@]56CCCN5C[C@H](F)C6)nc4c3F)c12 (stereo partly drawn) [Example 368, 3-(((7-(8-ethyl-7-fluoro-3-hydroxynaphthalen-1-yl)-8-fluoro-2-(((2R,7aS)-2-fluorotetrahydro-1H-pyrrolizin-7a(5H)-yl)methoxy)pyrido[4,3-d]pyrimidin-4-yl)amino)methyl)pyrrolidin-2-one]
IC50 [7]: ≥ 10000 nM | IC50 [1]: 4 nM | IC50 [2]: 24 nM | IC50 [3]: 617 nM | IC50 [4]: 4680 nM | IC50 [8]: 191 nM | IC50 [5]: 11 nM

CCc1c(F)ccc2cc(O)cc(-c3ncc4c(N5C[C@H](CO)OC[C@](C)(O)C5)nc(OC[C@@]56CCCN5C[C@H](F)C6)nc4c3F)c12 [Example 497, (2R,6R)-4-(7-(8-ethyl-7-fluoro-3-hydroxynaphthalen-1-yl)-8-fluoro-2-(((2R,7aS)-2-fluorohexahydro-1H-pyrrolizin-7a-yl)methoxy)pyrido[4,3-d]pyrimidin-4-yl)-2-(hydroxymethyl)-6-methyl-1,4-oxazepan-6-ol]
IC50 [7]: ≥ 10000 nM | IC50 [3]: 503 nM | IC50 [4]: 987 nM | IC50 [8]: 43 nM

CCc1c(F)ccc2cc(O)cc(-c3ncc4c(N5CCCC6(CCS(=N)(=O)C6)C5)nc(OC[C@@]56CCCN5C[C@H](F)C6)nc4c3F)c12 (stereo partly drawn) [Example 508, 7-(7-(8-ethyl-7-fluoro-3-hydroxynaphthalen-1-yl)-8-fluoro-2-(((2R,7aS)-2-fluorohexahydro-1H-pyrrolizin-7a-yl)methoxy)pyrido[4,3-d]pyrimidin-4-yl)-2-imino-2-thia-7-azaspiro[4.5]decane 2-oxide]
IC50 [1]: 5 nM | IC50 [2]: 12 nM | IC50 [3]: 2190 nM | IC50 [4]: 1550 nM | IC50 [5]: 14 nM

O=C1CC2(CCCN(c3nc(OCC45CCCN4CCC5)nc4c(F)c(-c5cc(O)cc(Cl)c5C5CC5)ncc34)C2)N1 (stereo not shown) [Example 518, 6-(7-(3-chloro-2-cyclopropyl-5-hydroxyphenyl)-8-fluoro-2-((tetrahydro-1H-pyrrolizin-7a(5H)-yl)methoxy)pyrido[4,3-d]pyrimidin-4-yl)-1,6-diazaspiro[3.5]nonan-2-one]
IC50 [1]: ≤ 2 nM | IC50 [2]: ≤ 2 nM | IC50 [3]: 9210 nM | IC50 [4]: ≥ 10000 nM | IC50 [5]: ≤ 2 nM

O=C1NC(=O)C2CN(c3nc(OCC45CCCN4CCC5)nc4c(F)c(-c5cc(O)cc(Cl)c5C5CC5)ncc34)CC12 (stereo not shown) [Example 519, 5-(7-(3-chloro-2-cyclopropyl-5-hydroxyphenyl)-8-fluoro-2-((tetrahydro-1H-pyrrolizin-7a(5H)-yl)methoxy)pyrido[4,3-d]pyrimidin-4-yl)tetrahydropyrrolo[3,4-c]pyrrole-1,3(2H,3aH)-dione]
IC50 [1]: ≤ 2 nM | IC50 [2]: ≤ 2 nM | IC50 [3]: ≥ 10000 nM | IC50 [4]: ≥ 10000 nM | IC50 [5]: ≤ 2 nM

Cc1cc2[nH]ncc2c(-c2ncc3c(N4CCC[C@@](C)(O)C4)nc(OCC4(CN(C)C)CC4)nc3c2F)c1C [Example 520, (3R)-1-(7-(5,6-dimethyl-1H-indazol-4-yl)-2-((1-((dimethylamino)methyl)cyclopropyl)methoxy)-8-fluoropyrido[4,3-d]pyrimidin-4-yl)-3-methylpiperidin-3-ol]
IC50 [1]: 692 nM | IC50 [2]: 614 nM | IC50 [3]: ≥ 10000 nM | IC50 [4]: ≥ 10000 nM | IC50 [5]: 1750 nM

Cc1cc2[nH]ncc2c(-c2ncc3c(N4CCCC5(CNS(=O)(=O)N5)C4)nc(OCC45CCCN4CCC5)nc3c2F)c1C (stereo not shown) [Example 521, 7-(7-(5,6-dimethyl-1H-indazol-4-yl)-8-fluoro-2-((hexahydro-1H-pyrrolizin-7a-yl)methoxy)pyrido[4,3-d]pyrimidin-4-yl)-2-thia-1,3,7-triazaspiro[4.5]decane 2,2-dioxide]
IC50 [1]: 4 nM | IC50 [2]: ≤ 2 nM | IC50 [3]: ≥ 10000 nM | IC50 [4]: ≥ 10000 nM | IC50 [5]: 3 nM

Cc1cc2[nH]ncc2c(-c2ncc3c(N4CCOCC(C)(O)C4)nc(OCC45CCCN4CCC5)nc3c2F)c1C (stereo not shown) [Example 522, 4-(7-(5,6-dimethyl-1H-indazol-4-yl)-8-fluoro-2-((hexahydro-1H-pyrrolizin-7a-yl)methoxy)pyrido[4,3-d]pyrimidin-4-yl)-6-methyl-1,4-oxazepan-6-ol]
IC50 [1]: 292 nM | IC50 [2]: 390 nM | IC50 [3]: ≥ 10000 nM | IC50 [4]: ≥ 10000 nM | IC50 [5]: 759 nM

Cc1cc2[nH]ncc2c(-c2ncc3c(N4CCCC5(CC(=O)N5)C4)nc(OCC45CCCN4CCC5)nc3c2F)c1C (stereo not shown) [Example 523, 6-(7-(5,6-dimethyl-1H-indazol-4-yl)-8-fluoro-2-((hexahydro-1H-pyrrolizin-7a-yl)methoxy)pyrido[4,3-d]pyrimidin-4-yl)-1,6-diazaspiro[3.5]nonan-2-one]
IC50 [1]: 166 nM | IC50 [2]: 129 nM | IC50 [3]: ≥ 10000 nM | IC50 [4]: ≥ 10000 nM | IC50 [5]: 217 nM
